Patent publication US20230159532A1, “PARATHYROID HORMONE (PTH) RECEPTOR ANTAGONISTS AND USES THEREOF” (Crinetics Pharmaceuticals, Inc., priority 2021, published 2023)
pKi: −log10 of the molar value.

Target: T1, human PTHR1 receptor (Homo sapiens, UniProt Q03431)
T1 construct: purchased Eurofins HTS030M
T1 sequence (Q03431 27-593): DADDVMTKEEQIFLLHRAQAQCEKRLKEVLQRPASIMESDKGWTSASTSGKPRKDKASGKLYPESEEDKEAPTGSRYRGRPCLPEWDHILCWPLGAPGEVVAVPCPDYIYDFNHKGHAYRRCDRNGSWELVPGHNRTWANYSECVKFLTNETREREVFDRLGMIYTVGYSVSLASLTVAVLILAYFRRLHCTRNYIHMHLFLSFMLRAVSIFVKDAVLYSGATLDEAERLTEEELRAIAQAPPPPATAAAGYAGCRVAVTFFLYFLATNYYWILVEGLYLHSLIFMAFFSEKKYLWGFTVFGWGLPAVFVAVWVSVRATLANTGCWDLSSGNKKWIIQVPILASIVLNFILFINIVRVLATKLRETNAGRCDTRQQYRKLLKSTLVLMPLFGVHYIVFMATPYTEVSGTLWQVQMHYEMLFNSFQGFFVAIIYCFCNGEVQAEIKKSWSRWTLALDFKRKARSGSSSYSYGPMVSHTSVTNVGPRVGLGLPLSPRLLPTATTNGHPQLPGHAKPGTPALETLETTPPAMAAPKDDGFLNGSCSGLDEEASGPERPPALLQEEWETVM
Assay: Competitive antagonist binding assay for hPTH-R1 (radioactive competition binding, SPA beads)
Conditions: human PTHR1 membranes, [125I]-[Nle8,18,Tyr34]-PTH(1-34) 0.2 nM, 90 minutes at room temperature; read-out: hPTHR1 Ki
Procedure, shortened: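 Displacement of 0.2 nM radioiodinated [Nle8,18,Tyr34]-PTH(1-34) from membrane-bound human PTHR1 measured by scintillation proximity after 90 min at room temperature. Compounds typically 0-10,000 nM final, pH 7.4 HEPES/Mg/Ca buffer with BSA and detergent. Ki calculated from competition data.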

Row | SMILES | pKi
1 | CCCN1C(=O)N(c2c(F)cc(NCCNCCO)cc2F)c2cc(C#N)ccc2-c2cc(F)cnc21 [1-118, 10-[2,6-difluoro-4-({2-[(2-hydroxyethyl)amino]ethyl}amino)phenyl]-4-fluoro-9-oxo-8-propyl-6,8,10-triazatricyclo[9.4.0.0^2,7]pentadeca-1(11),2(7),3,5,12,14-hexaene-13-carbonitrile] | > 7.00
2 | CCCN1C(=O)N(c2c(F)cc(NCCNC)cc2F)c2cc(C#N)ccc2-c2cc(Cl)cnc21 [1-119, 4-chloro-10-(2,6-difluoro-4-{[2-(methylamino)ethyl]amino}phenyl)-9-oxo-8-propyl-6,8,10-triazatricyclo[9.4.0.0^2,7]pentadeca-1(11),2(7),3,5,12,14-hexaene-13-carbonitrile] | > 7.00
3 | CCCN1C(=O)N(c2c(F)cc(NCCNCCO)cc2F)c2cc(C#N)ccc2-c2cc(Cl)cnc21 [1-120, 4-chloro-10-[2,6-difluoro-4-({2-[(2-hydroxyethyl)amino]ethyl}amino)phenyl]-9-oxo-8-propyl-6,8,10-triazatricyclo[9.4.0.0^2,7]pentadeca-1(11),2(7),3,5,12,14-hexaene-13-carbonitrile] | > 7.00
4 | CNCCNc1cc(F)c(N2C(=O)N(CCO)c3ncc(F)cc3-c3ccc(C#N)cc32)c(F)c1 [1-121, 10-(2,6-difluoro-4-{[2-(methylamino)ethyl]amino}phenyl)-4-fluoro-8-(2-hydroxyethyl)-9-oxo-6,8,10-triazatricyclo[9.4.0.0^2,7]pentadeca-1(11),2(7),3,5,12,14-hexaene-13-carbonitrile] | 6.00 to 7.00
5 | CNCCNc1cc(F)c(N2C(=O)N(CCOC)c3ncc(F)cc3-c3ccc(C#N)cc32)c(F)c1 [1-122, 10-(2,6-difluoro-4-{[2-(methylamino)ethyl]amino}phenyl)-4-fluoro-8-(2-methoxyethyl)-9-oxo-6,8,10-triazatricyclo[9.4.0.0^2,7]pentadeca-1(11),2(7),3,5,12,14-hexaene-13-carbonitrile] | > 7.00
6 | CCN1C(=O)N(c2c(F)cc(N3CC(CN)C3)cc2F)c2cc(C#N)ccc2-c2cc(F)cnc21 [1-123, 10-{4-[3-(aminomethyl)azetidin-1-yl]-2,6-difluorophenyl}-8-ethyl-4-fluoro-9-oxo-6,8,10-triazatricyclo[9.4.0.0^2,7]pentadeca-1(11),2(7),3,5,12,14-hexaene-13-carbonitrile] | > 7.00
7 | CCN1C(=O)N(c2c(F)cc(N3CC(NCCO)C3)cc2F)c2cc(C#N)ccc2-c2cc(F)cnc21 [1-124, 10-(2,6-difluoro-4-{3-[(2-hydroxyethyl)amino]azetidin-1-yl}phenyl)-8-ethyl-4-fluoro-9-oxo-6,8,10-triazatricyclo[9.4.0.0^2,7]pentadeca-1(11),2(7),3,5,12,14-hexaene-13-carbonitrile] | 6.00 to 7.00
8 | CCCN1C(=O)N(c2c(F)cc(NCCNCCO)cc2F)c2cc(C#N)cc(F)c2-c2cc(F)cnc21 [1-125, 10-[2,6-difluoro-4-({2-[(2-hydroxyethyl)amino]ethyl}amino)phenyl]-4,15-difluoro-9-oxo-8-propyl-6,8,10-triazatricyclo[9.4.0.0^2,7]pentadeca-1(11),2(7),3,5,12,14-hexaene-13-carbonitrile] | > 7.00
9 | CCN1C(=O)N(c2c(F)cc(NCCN)cc2F)c2cc(C#N)ccc2-c2cc(Cl)cnc21 [1-126, 10-{4-[(2-aminoethyl)amino]-2,6-difluorophenyl}-4-chloro-8-ethyl-9-oxo-6,8,10-triazatricyclo[9.4.0.0^2,7]pentadeca-1(11),2(7),3,5,12,14-hexaene-13-carbonitrile] | > 7.00
10 | CCN1C(=O)N(c2c(F)cc(NCCNCCNC)cc2F)c2cc(C#N)ccc2-c2cc(Cl)cnc21 [1-127, 4-chloro-10-{2,6-difluoro-4-[(2-{[2-(methylamino)ethyl]amino}ethyl)amino]phenyl}-8-ethyl-9-oxo-6,8,10-triazatricyclo[9.4.0.0^2,7]pentadeca-1(11),2(7),3,5,12,14-hexaene-13-carbonitrile] | > 7.00
11 | CCN1C(=O)N(c2c(F)cc(NCCN3CCNC(=O)C3)cc2F)c2cc(C#N)ccc2-c2cc(Cl)cnc21 [1-128, 4-chloro-10-(2,6-difluoro-4-{[2-(3-oxopiperazin-1-yl)ethyl]amino}phenyl)-8-ethyl-9-oxo-6,8,10-triazatricyclo[9.4.0.0^2,7]pentadeca-1(11),2(7),3,5,12,14-hexaene-13-carbonitrile] | 6.00 to 7.00
12 | CCN1C(=O)N(c2c(F)cc(NCCNCCO)cc2F)c2cc(F)ccc2-c2cc(Cl)cnc21 [1-129, 4-chloro-10-[2,6-difluoro-4-({2-[(2-hydroxyethyl)amino]ethyl}amino)phenyl]-8-ethyl-13-fluoro-6,8,10-triazatricyclo[9.4.0.0^2,7]pentadeca-1(11),2(7),3,5,12,14-hexaen-9-one] | > 7.00
13 | CCN1C(=O)N(c2c(F)cc(NCCNC)cc2F)c2cc(F)ccc2-c2cc(Cl)cnc21 [1-130, 4-chloro-10-(2,6-difluoro-4-{[2-(methylamino)ethyl]amino}phenyl)-8-ethyl-13-fluoro-6,8,10-triazatricyclo[9.4.0.0^2,7]pentadeca-1(11),2(7),3,5,12,14-hexaen-9-one] | > 7.00
14 | CCN1C(=O)N(c2c(F)cc(NCCNCCN)cc2F)c2cc(C#N)ccc2-c2cc(Cl)cnc21 [1-131, 10-[4-({2-[(2-aminoethyl)amino]ethyl}amino)-2,6-difluorophenyl]-4-chloro-8-ethyl-9-oxo-6,8,10-triazatricyclo[9.4.0.0^2,7]pentadeca-1(11),2(7),3,5,12,14-hexaene-13-carbonitrile] | > 7.00
15 | CCN1C(=O)N(c2c(F)cc(NCCNCCN(C)C)cc2F)c2cc(C#N)ccc2-c2cc(Cl)cnc21 [1-132, 4-chloro-10-{4-[(2-{[2-(dimethylamino)ethyl]amino}ethyl)amino]-2,6-difluorophenyl}-8-ethyl-9-oxo-6,8,10-triazatricyclo[9.4.0.0^2,7]pentadeca-1(11),2(7),3,5,12,14-hexaene-13-carbonitrile] | > 7.00

Further lines, results first:

Row | pKi | SMILES
16 | > 7.00 | CCNCCNc1cc(F)c(N2C(=O)N(CC)c3ncc(Cl)cc3-c3ccc(C#N)cc32)c(F)c1 [1-133, 4-chloro-8-ethyl-10-(4-{[2-(ethylamino)ethyl]amino}-2,6-difluorophenyl)-9-oxo-6,8,10-triazatricyclo[9.4.0.0^2,7]pentadeca-1(11),2(7),3,5,12,14-hexaene-13-carbonitrile]
17 | > 7.00 | CCN1C(=O)N(c2c(F)cc(NCCNCCO)cc2F)c2cc(Cl)cc(C#N)c2-c2cc(F)cnc21 [1-134, 13-chloro-10-[2,6-difluoro-4-({2-[(2-hydroxyethyl)amino]ethyl}amino)phenyl]-8-ethyl-4-fluoro-9-oxo-6,8,10-triazatricyclo[9.4.0.0^2,7]pentadeca-1(11),2(7),3,5,12,14-hexaene-15-carbonitrile]
18 | > 7.00 | CCN1C(=O)N(c2c(F)cc(NCCNC)cc2F)c2ccccc2-c2cc(Cl)cnc21 [1-135, 4-chloro-10-(2,6-difluoro-4-{[2-(methylamino)ethyl]amino}phenyl)-8-ethyl-6,8,10-triazatricyclo[9.4.0.0^2,7]pentadeca-1(11),2(7),3,5,12,14-hexaen-9-one]
19 | 6.00 to 7.00 | CCN1C(=O)N(c2c(F)cc(N3CCNCC3)cc2F)c2cc(C#N)ccc2-c2cc(Cl)cnc21 [1-136, 4-chloro-10-[2,6-difluoro-4-(piperazin-1-yl)phenyl]-8-ethyl-9-oxo-6,8,10-triazatricyclo[9.4.0.0^2,7]pentadeca-1(11),2(7),3,5,12,14-hexaene-13-carbonitrile]
20 | > 7.00 | CCN1C(=O)N(c2c(F)cc(NCCNCC(C)O)cc2F)c2cc(C#N)ccc2-c2cc(Cl)cnc21 (centres unmarked) [1-137, 4-chloro-10-[2,6-difluoro-4-({2-[(2-hydroxypropyl)amino]ethyl}amino)phenyl]-8-ethyl-9-oxo-6,8,10-triazatricyclo[9.4.0.0^2,7]pentadeca-1(11),2(7),3,5,12,14-hexaene-13-carbonitrile]
21 | > 7.00 | CCN1C(=O)N(c2c(F)cc(NCCNCC(C)(C)O)cc2F)c2cc(C#N)ccc2-c2cc(Cl)cnc21 [1-138, 4-chloro-10-[2,6-difluoro-4-({2-[(2-hydroxy-2-methylpropyl)amino]ethyl}amino)phenyl]-8-ethyl-9-oxo-6,8,10-triazatricyclo[9.4.0.0^2,7]pentadeca-1(11),2(7),3,5,12,14-hexaene-13-carbonitrile]
22 | > 7.00 | CCC(CO)NCCNc1cc(F)c(N2C(=O)N(CC)c3ncc(Cl)cc3-c3ccc(C#N)cc32)c(F)c1 (centres unmarked) [1-139, 4-chloro-10-[2,6-difluoro-4-({2-[(1-hydroxybutan-2-yl)amino]ethyl}amino)phenyl]-8-ethyl-9-oxo-6,8,10-triazatricyclo[9.4.0.0^2,7]pentadeca-1(11),2(7),3,5,12,14-hexaene-13-carbonitrile]
23 | > 7.00 | CCN1C(=O)N(c2c(F)cc(NCCNCCNC(N)=O)cc2F)c2cc(C#N)ccc2-c2cc(Cl)cnc21 [1-140, [2-({2-[(4-{4-chloro-13-cyano-8-ethyl-9-oxo-6,8,10-triazatricyclo[9.4.0.0^2,7]pentadeca-1(11),2(7),3,5,12,14-hexaen-10-yl}-3,5-difluorophenyl)amino]ethyl}amino)ethyl]urea]
